Reference: patent publication US20060069110A1, “Substituted heterocyclic compounds and methods of use” (priority 2004, published 2006)

Tested on: THP1 cells (LPS induced TNF release)
Test: Lipopolysaccharide-Activated THP1 Cell TNF Production Assay
Type: cell-based
Conditions: Homo sapiens, THP-1; THP1 cells, bacterial LPS, secreted TNF-α after 3 h at 37° C.; read-out: IC50 values in the THP1 cell assay (LPS induced TNF release)
How it was run: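 THP1 cells at 1E6/mL were treated with 3-fold serial compound dilutions and LPS (1 μg/mL stock) for 3 h at 37 °C. Secreted TNF-α was quantified by electrochemiluminescent sandwich immunoassay. Percent of DMSO control versus concentration was fitted to a 4-parameter equation.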

IC50, ≤ 20 µM:
CN(c1cncc(-c2ccccc2)n1)c1ccnc(NCCc2ccccc2Cl)n1 [Example 123, N^2-(2-Chlorophenethyl)-N^4-methyl-N^4-(6-phenylpyrazin-2-yl)pyrimidine-2,4-diamine]
CN(c1cncc(-c2ccccc2)n1)c1ccnc(N[C@H]2CC[C@H](N)CC2)n1 [Example 124, N^2-((1r, 4r)-4-Aminocyclohexyl)-N^4-methyl-N^4-(6-phenylpyrazine-2-yl)pyrimidine-2,4-diamine]
COc1nc(-c2ccccc2)nc(N(C)c2ccnc(N[C@@H](C)Cc3cccc(CNC(=O)[C@H](C)N)c3)n2)n1 [Example 125, (S)-N-((S)-3-((S)-2-(4-((4-Methoxy-6-phenyl-1,3,5-triazin-2-yl)(methyl)amino)-pyrimidin-2-ylamino)propyl)benzyl)-2-aminopropanamide]
COc1nc(-c2ccccc2)nc(N(C)c2ccnc(N[C@@H](C)Cc3cccc([C@@H](C)N)c3)n2)n1 [Example 126, N^2-((S)-1-(3-((R)-1-Aminoethyl)phenyl)propan-2-yl)-N^4-(4-methoxy-6-phenyl-1,3,5-triazin-2-yl)-N^4-methylpyrimidine-2,4-diamine]
CN(c1cccc(-c2ccc(C(F)(F)F)cc2)n1)c1ccnc(NCCc2ccccc2)n1 [Example 128, N^4-Methyl-N^2-phenethyl-N^4-(6-(4-(trifluoromethyl)phenyl)pyridin-2-yl)-pyrimidine-2,4-diamine]
CN(c1cccc(-c2cccc(C(F)(F)F)c2)n1)c1ccnc(NCCc2ccccc2)n1 [Example 129, N^4-Methyl-N^2-phenethyl-N^4-(6-(3-(trifluoromethyl)phenyl)pyridin-2-yl)-pyrimidine-2,4-diamine]
CN(c1cccc(-c2ccccc2C(F)(F)F)n1)c1ccnc(NCCc2ccccc2)n1 [Example 130, N^4-Methyl-N^2-phenethyl-N^4-(6-(2-(trifluoromethyl)phenyl)pyridin-2-yl)-pyrimidine-2,4-diamine]
CN(c1cccc(-c2ccc(Cl)cc2)n1)c1ccnc(NCCc2ccccc2)n1 [Example 134, N^4-(6-(4-Chlorophenyl)pyridin-2-yl)-N^4-methyl-N^2-phenethylpyrimidine-2,4-diamine]
CN(c1cccc(-c2cccc(Cl)c2)n1)c1ccnc(NCCc2ccccc2)n1 [Example 135, N^4-(6-(3-chlorophenyl)pyridin-2-yl)-N^4-methyl-N^2-phenethylpyrimidine-2,4-diamine]
CN(c1cccc(-c2ccccc2Cl)n1)c1ccnc(NCCc2ccccc2)n1 [Example 136, N^4-(6-(2-Chlorophenyl)pyridin-2-yl)-N^4-methyl-N^2-phenethylpyrimidine-2,4-diamine]
Cc1ccc(-c2cccc(N(C)c3ccnc(NCCc4ccccc4)n3)n2)cc1 [Example 137, N^4-Methyl-N^2-phenethyl-N^4-(6-p-tolylpyridin-2-yl)-pyrimidine-2,4-diamine]
Cc1cccc(-c2cccc(N(C)c3ccnc(NCCc4ccccc4)n3)n2)c1 [Example 138, N^4-Methyl-N^2-phenethyl-N^4-(6-m-tolylpyridin-2-yl)-pyrimidine-2,4-diamine]
Cc1ccccc1-c1cccc(N(C)c2ccnc(NCCc3ccccc3)n2)n1 [Example 139, N^4-Methyl-N^2-phenethyl-N^4-(6-o-tolylpyridin-2-yl)-pyrimidine-2,4-diamine]
COc1ccc(-c2cccc(N(C)c3ccnc(NCCc4ccccc4)n3)n2)cc1 [Example 140, N^4-(6-(4-Methoxyphenyl)pyridin-2-yl)-N^4-methyl-N^2-phenethylpyrimidine-2,4-diamine]
COc1cccc(-c2cccc(N(C)c3ccnc(NCCc4ccccc4)n3)n2)c1 [Example 141, N^4-(6-(3-Methoxyphenyl)pyridin-2-yl)-N^4-methyl-N^2-phenethylpyrimidine-2,4-diamine]
COc1ccccc1-c1cccc(N(C)c2ccnc(NCCc3ccccc3)n2)n1 [Example 142, N^4-(6-(2-Methoxyphenyl)pyridin-2-yl)-N^4-methyl-N^2-phenethylpyrimidine-2,4-diamine]
CN(c1cccc(-c2cc(F)cc(F)c2)n1)c1ccnc(NCCc2ccccc2)n1 [Example 143, N^4-(6-(3,5-Difluorophenyl)pyridin-2-yl)-N^4-methyl-N^2-phenethylpyrimidine-2,4-diamine]
CN(c1cccc(-c2ccc(F)c(F)c2)n1)c1ccnc(NCCc2ccccc2)n1 [Example 144, N^4-(6-(3,4-Difluorophenyl)pyridin-2-yl)-N^4-methyl-N^2-phenethylpyrimidine-2,4-diamine]
CN(c1cccc(-c2cccc(F)c2F)n1)c1ccnc(NCCc2ccccc2)n1 [Example 145, N^4-(6-(2,3-Difluorophenyl)pyridin-2-yl)-N^4-methyl-N^2-phenethylpyrimidine-2,4-diamine]
CN(c1cccc(-c2ccoc2)n1)c1ccnc(NCCc2ccccc2)n1 [Example 146, N^4-(6-(Furan-3-yl)pyridin-2-yl)-N^4-methyl-N^2-phenethylpyrimidine-2,4-diamine]
CN(c1cccc(-c2ccsc2)n1)c1ccnc(NCCc2ccccc2)n1 [Example 147]
CN(c1cccc(C2=CCCCC2)n1)c1ccnc(NCCc2ccccc2)n1 [Example 148, N^4-(6-cyclohexenylpyridin-2-yl)-N^4-methyl-N^2-phenethylpyrimidine-2,4-diamine]
CN(c1cccc(-c2ccco2)n1)c1ccnc(NCCc2ccccc2)n1 [Example 149, N^4-(6-(Furan-2-yl)pyridin-2-yl)-N^4-methyl-N^2-phenethylpyrimidine-2,4-diamine]
CN(c1cccc(-c2cccs2)n1)c1ccnc(NCCc2ccccc2)n1 [Example 150, N^4-Methyl-N^2-phenethyl-N^4-(6-(thiophen-2-yl)pyridin-2-yl)pyrimidine-2,4-diamine]
CN(c1cccc(Cc2ccccc2)n1)c1ccnc(NCCc2ccccc2)n1 [Example 151, N^4-(6-Benzylpyridin-2-yl)-N^4-methyl-N^2-phenethylpyrimidine-2,4-diamine]
CN(c1cccc(-c2ccccc2)n1)c1ccnc(N[C@H]2CC[C@H](N)CC2)n1 [Example 153, N^2-((1s,4s)-4-aminocyclohexyl)-N^4-methyl-N^4-(6-phenylpyridin-2-yl)pyrimidine-2,4-diamine]
CC(Cc1cccc(CO)c1)Nc1nccc(N(C)c2cccc(-c3cccc(F)c3)n2)n1 (centres unmarked) [Example 156, (3-(2-(4-((6-(3-Fluorophenyl)pyridin-2-yl)(methyl)amino)pyrimidin-2-ylamino)propyl)phenyl)methanol]
CC(Cc1cccc(CN)c1)Nc1nccc(N(C)c2cccc(-c3cccc(F)c3)n2)n1 (centres unmarked) [Example 157, N^2-(1-(3-(Aminomethyl)phenyl)propan-2-yl)-N^4-(6-(3-fluorophenyl)pyridin-2-yl)-N^4-methylpyrimidine-2,4-diamine]
Cn1c(Nc2ccnc(NCCc3ccccc3Cl)n2)cc(-c2ccccc2)cc1=O [Example 160, 6-(2-(2-Chlorophenethylamino)pyrimidin-4-ylamino)-1-methyl-4-phenylpyridin-2(1H)-one]
CN(c1ccnc(NC(C)(C)CNC(=O)OC(C)(C)C)n1)c1cc(-c2ccccc2)cc(=O)n1C [Example 161, tert-Butyl 2-methyl-2-(4-(methyl(1-methyl-6-oxo-4-phenyl-1,6-dihydropyridin-2-yl)amino)pyrimidin-2-ylamino)propylcarbamate]
CN(c1ccnc(NC2CCN(C(=O)OC(C)(C)C)CC2)n1)c1cc(-c2ccccc2)cc(=O)n1C [Example 162, tert-Butyl 4-(4-(methyl(1-2-yl)amino)pyrimidin-2-ylamino)piperidine-1-carboxylate]
CC(Cc1cccc(CO)c1)Nc1nccc(N(C)c2cc(Cl)nc(-c3ccccc3)c2)n1 (centres unmarked) [Example 163, (3-(2-(4-((2-Chloro-6-phenylpyridin-4-yl)(methyl)amino)pyrimidin-2-ylamino)-propyl)phenyl)methanol]
CC(Cc1cccc(CN)c1)Nc1nccc(N(C)c2cc(Cl)nc(-c3ccccc3)c2)n1 (centres unmarked) [Example 164, N^2-(1-(3-(Aminomethyl)phenyl)propan-2-yl)-N^4-(2-chloro-6-phenylpyridin-4-yl)-N4-methylpyrimidine-2,4-diamine]
CN(c1c[nH]c(=O)c(-c2ccccc2)c1)c1ccnc(NCCc2ccccc2)n1 [Example 166, 5-(Methyl(2-(phenethylamino)pyrimidin-4-yl)amino)-3-phenylpyridin-2(1H)-one]
CC(=O)N1CCC(Nc2nccc(N(C)c3c[nH]c(=O)c(-c4ccccc4)c3)n2)CC1 [Example 167, 5-((2-(1-Acetylpiperidin-4-ylamino)pyrimidin-4-yl)(methyl)amino)-3-phenyl-pyridin-2(1H)-one]
C[C@@H](Cc1cccc(CN)c1)Nc1nccc(N(C)c2c[nH]c(=O)c(-c3ccccc3)c2)n1 [Example 168, (S)-5-((2-(1-(3-(Aminomethyl)phenyl)propan-2-ylamino)pyrimidin-4-yl)(methyl)-amino)-3-phenylpyridin-2(1H)-one]
C[C@@H](Cc1cccc(CN)c1)Nc1nccc(N(C)c2c[nH]c(=O)c(-c3ccccc3F)c2)n1 [Example 169]
C[C@H](N)c1cccc(C[C@H](C)Nc2nccc(N(C)c3c[nH]c(=O)c(-c4ccccc4)c3)n2)c1 [Example 170, 5-((2-((S)-1-(3-((S)-1-Aminoethyl)phenyl)propan-2-ylamino)pyrimidin-4-yl)-(methyl)amino)-3-phenylpyridin-2(1H)-one]
